Assay results: patent US20240239772A1, “PROTEASE INHIBITORS AND METHODS OF USE” (The Cleveland Clinic Foundation, priority 2021, published 2024)

The compounds below were run against SARS-CoV-2 3CLpro (Severe acute respiratory syndrome coronavirus 2 (2019-nCoV) (SARS-CoV-2), UniProt P0DTD1) (assay: biochemical). Details: not given.
Assay type: biochemical
`CC(c1cc(F)cc(Cl)c1)N(C(=O)Cn1nnc2ccccc21)c1ccc(-c2c[nH]cn2)cc1` (racemic) [Compound 73, 2-(benzotriazol-1-yl)-N-[4-(1H-imidazol-4-yl)phenyl]-N-[rac-(1R)-1-(3-chloro-5-fluoro-phenyl)ethyl]acetamide] was tested, and the IC50 was 100 nM.

Same assay, conditions: read-out: SARS-CoV-2 IC50
Compound `O=C(Cn1nnc2ccccc21)N(Cc1ccsc1)c1ccc(-c2ccc[nH]c2=O)cc1` [Compound 17, 2-(1H-Benzo[d][1,2,3]triazol-1-yl)-N-(4-(2-oxo-1,2-dihydropyridin-3-yl)phenyl)-N-(thiophen-3-ylmethyl)acetamide] has an IC50 of 920 ± 210 nM. Compound `Cn1cc(-c2ccc(N(Cc3ccsc3)C(=O)Cn3nnc4ccccc43)cc2)cn1` [Compound 18, 2-(Benzotriazol-1-yl)-N-[4-(1-methylpyrazol-4-yl)phenyl]-N-(3-thienylmethyl)acetamide] has an IC50 of 20400 ± 420 nM. `Cn1cnc(-c2ccc(N(Cc3ccsc3)C(=O)Cn3nnc4ccccc43)cc2)c1` [Compound 20, 2-(Benzotriazol-1-yl)-N-[4-(1-methylimidazol-4-yl)phenyl]-N-(3-thienylmethyl)acetamide] was tested, and the IC50 was 9550 ± 990 nM. Compound `CC(C)CCN(C(=O)Cn1nnc2ccccc21)c1ccc(-c2cccnc2)cc1` [Compound 22, 2-(1H-Benzo[d][1,2,3]triazol-1-yl)-N-isopentyl-N-(4-(pyridin-3-yl)phenyl)acetamide] has an IC50 of 4620 ± 130 nM. Work on `O=C(Cn1nnc2ccccc21)N(CC1CCC1)c1ccc(-c2cccnc2)cc1` [Compound 24, 2-(1H-Benzo[d][1,2,3]triazol-1-yl)-N-(cyclobutylmethyl)-N-(4-(pyridin-3-yl)phenyl)acetamide] yielded an IC50 of 830 ± 30 nM. `O=C(Cn1nnc2ccccc21)N(CC1CCCC1)c1ccc(-c2cccnc2)cc1` [Compound 25, 2-(1H-Benzo[d][1,2,3]triazol-1-yl)-N-(cyclopentylmethyl)-N-(4-(pyridin-3-yl)phenyl)acetamide] was tested, and the IC50 was 1160 ± 190 nM. `O=C(Cn1nnc2ccccc21)N(Cc1cscn1)c1ccc(-c2cccnc2)cc1` [Compound 27, 2-(Benzotriazol-1-yl)-N-[4-(3-pyridyl)phenyl]-N-(thiazol-4-ylmethyl)acetamide] gave an IC50 of 1590 ± 440 nM. `O=C(Cn1nnc2ccccc21)N(Cc1ccc(F)c(Cl)c1)c1ccc(-c2cccnc2)cc1` [Compound 29, 2-(Benzotriazol-1-yl)-N-[(3-chloro-4-fluoro-phenyl)methyl]-N-[4-(3-pyridyl)phenyl]acetamide] was tested, and the IC50 was 8530 ± 1820 nM. `O=C(Cn1nnc2ccccc21)N(Cc1cc(Cl)cc(Cl)c1)c1ccc(-c2cccnc2)cc1` [Compound 32, 2-(Benzotriazol-1-yl)-N-[(3,5-dichlorophenyl)methyl]-N-[4-(3-pyridyl)phenyl]acetamide] was tested, and the IC50 was 176 ± 25 nM. Work on `Cc1cc(Cl)cc(CN(C(=O)Cn2nnc3ccccc32)c2ccc(-c3cccnc3)cc2)c1` [Compound 33, 2-(Benzotriazol-1-yl)-N-[(3-chloro-5-methyl-phenyl)methyl]-N-[4-(3-pyridyl)phenyl]acetamide] yielded an IC50 of 312 ± 73 nM. `O=C(Cn1nnc2ccccc21)N(Cc1cncc(Cl)c1)c1ccc(-c2cccnc2)cc1` [Compound 34, 2-(Benzotriazol-1-yl)-N-[(5-chloro-3-pyridyl)methyl]-N-[4-(3-pyridyl)phenyl]acetamide] was tested, and the IC50 was 540 ± 70 nM. `O=C(Cn1nnc2ccccc21)N(CC1CCCC1)c1ccc(-c2ccc[nH]c2=O)cc1` [Compound 68, 2-(1H-benzo[d][1,2,3]triazol-1-yl)-N-(cyclopentylmethyl)-N-(4-(2-oxo-1,2-dihydropyridin-3-yl)phenyl)acetamide] gave an IC50 of 1300 nM. `Cc1[nH]ncc1-c1ccc(N(Cc2cccc(Cl)c2)C(=O)Cn2nnc3ccccc32)cc1` [Compound 69, 2-(1H-benzo[d][1,2,3]triazol-1-yl)-N-(3-chlorobenzyl)-N-(4-(5-methyl-1H-pyrazol-4-yl)phenyl)acetamide] showed an IC50 of 380 nM. Compound `O=C(Cn1nnc2ccccc21)N(CC1COC1)c1ccc(-c2cccnc2)cc1` [Compound 70, 2-(1H-benzo[d][1,2,3]triazol-1-yl)-N-(oxetan-3-ylmethyl)-N-(4-(pyridin-3-yl)phenyl)acetamide] has an IC50 of 32000 nM. `Cc1ccc(CN(C(=O)Cn2nnc3ccccc32)c2ccc(-c3cccnc3)cc2)cc1Cl` [Compound 71, 2-(1H-benzo[d][1,2,3]triazol-1-yl)-N-(3-chloro-4-methylbenzyl)-N-(4-(pyridin-3-yl)phenyl)acetamide] was tested, and the IC50 was greater than 50000 nM. With `O=C(Cn1nnc2ccccc21)N(Cc1cc(F)cc(Cl)c1)c1ccc(-c2c[nH]cn2)cc1` [Compound 72, 2-(benzotriazol-1-yl)-N-[(3-chloro-5-fluoro-phenyl)methyl]-N-[4-(1H-imidazol-4-yl)phenyl]acetamide] the IC50 was 52 nM. `Cc1[nH]cnc1-c1ccc(N(Cc2cc(F)cc(Cl)c2)C(=O)Cn2nnc3ccccc32)cc1` [Compound 74, 2-(benzotriazol-1-yl)-N-[(3-chloro-5-fluoro-phenyl)methyl]-N-[4-(5-methyl-1H-imidazol-4-yl)phenyl]acetamide] gave an IC50 of 350 nM. For `O=C(Cn1nnc2ccccc21)N(Cc1cc(F)cc(Cl)c1)c1ccc(-c2c[nH]cn2)cn1` [Compound 75, 2-(benzotriazol-1-yl)-N-[(3-chloro-5-fluoro-phenyl)methyl]-N-[5-(1H-imidazol-4-yl)-2-pyridyl]acetamide], the IC50 was 62 nM. With `O=C(Cn1nnc2ccccc21)N(Cc1cccc(C(F)(F)F)c1)c1ccc(-c2c[nH]cn2)cc1` [Compound 76, 2-(benzotriazol-1-yl)-N-[4-(1H-imidazol-4-yl)phenyl]-N-[[3-(trifluoromethyl)phenyl]methyl]acetamide] the IC50 was 270 nM. `N#Cc1cccc(CN(C(=O)Cn2nnc3ccccc32)c2ccc(-c3c[nH]cn3)cc2)c1` [Compound 77, 2-(benzotriazol-1-yl)-N-[(3-cyanophenyl)methyl]-N-[4-(1H-imidazol-4-yl)phenyl]acetamide] gave an IC50 of 640 nM. `O=C(Cn1nnc2ccccc21)N(Cc1cc(F)cc(F)c1)c1ccc(-c2c[nH]cn2)cc1` [Compound 78, 2-(benzotriazol-1-yl)-N-[(3,5-difluorophenyl)methyl]-N-[4-(1H-imidazol-4-yl)phenyl]acetamide] gave an IC50 of 95 nM. Compound `O=C(Cn1nnc2ccccc21)N(CC1CCC1)c1ccc(-c2c[nH]cn2)cc1` [Compound 79, 2-(benzotriazol-1-yl)-N-(cyclobutylmethyl)-N-[4-(1H-imidazol-4-yl)phenyl]acetamide] has an IC50 of 1100 nM. Compound `O=C(Cn1nnc2ccccc21)N(Cc1cc(F)ccc1F)c1ccc(-c2c[nH]cn2)cc1` [Compound 80, 2-(benzotriazol-1-yl)-N-[(2,5-difluorophenyl)methyl]-N-[4-(1H-imidazol-4-yl)phenyl]acetamide] has an IC50 of 220 nM. For `O=C(Cn1nnc2ccccc21)N(Cc1cccc(F)c1F)c1ccc(-c2c[nH]cn2)cc1` [Compound 81, 2-(benzotriazol-1-yl)-N-[(2,3-difluorophenyl)methyl]-N-[4-(1H-imidazol-4-yl)phenyl]acetamide], the IC50 was 400 nM. Work on `O=C(Cn1nnc2ccccc21)N(Cc1cccc(F)c1)c1ccc(-c2c[nH]cn2)cc1` [Compound 82, 2-(benzotriazol-1-yl)-N-[(3-fluorophenyl)methyl]-N-[4-(1H-imidazol-4-yl)phenyl]acetamide] yielded an IC50 of 360 nM. Compound `O=C(Cn1nnc2ccccc21)N(Cc1cc(Cl)ccc1F)c1ccc(-c2c[nH]cn2)cc1` [Compound 83, 2-(benzotriazol-1-yl)-N-[(5-chloro-2-fluoro-phenyl)methyl]-N-[4-(1H-imidazol-4-yl)phenyl]acetamide] has an IC50 of 76 nM. `O=C(Cn1nnc2ccccc21)N(Cc1cccc(Cl)c1F)c1ccc(-c2c[nH]cn2)cc1` [Compound 84, 2-(benzotriazol-1-yl)-N-[(3-chloro-2-fluoro-phenyl)methyl]-N-[4-(1H-imidazol-4-yl)phenyl]acetamide] gave an IC50 of 230 nM. In the case of `O=C(Cn1nnc2ccccc21)N(Cc1cncc(Cl)c1)c1ccc(-c2c[nH]cn2)cc1` [Compound 85, 2-(benzotriazol-1-yl)-N-[(5-chloro-3-pyridyl)methyl]-N-[4-(1H-imidazol-4-yl)phenyl]acetamide], the IC50 is reported as 89 nM. With `COc1ccc(Cl)cc1CN(C(=O)Cn1nnc2ccccc21)c1ccc(-c2c[nH]cn2)cc1` [Compound 86, 2-(benzotriazol-1-yl)-N-[(5-chloro-2-methoxy-phenyl)methyl]-N-[4-(1H-imidazol-4-yl)phenyl]acetamide] the IC50 was 180 nM. `COc1cc(Cl)cc(CN(C(=O)Cn2nnc3ccccc32)c2ccc(-c3c[nH]cn3)cc2)c1` [Compound 87, 2-(benzotriazol-1-yl)-N-[(3-chloro-5-methoxy-phenyl)methyl]-N-[4-(1H-imidazol-4-yl)phenyl]acetamide] showed an IC50 of 57 nM. `CC(c1cc(F)cc(F)c1)N(C(=O)Cn1nnc2ccccc21)c1ccc(-c2c[nH]cn2)cc1` (stereo not shown) [Compound 88, 2-(benzotriazol-1-yl)-N-[1-(3,5-difluorophenyl)ethyl]-N-[4-(1H-imidazol-4-yl)phenyl]acetamide] gave an IC50 of 160 nM. `CC(C)CN(C(=O)Cn1nnc2ccccc21)c1ccc(-c2c[nH]cn2)cc1` [Compound 89, 2-(benzotriazol-1-yl)-N-[4-(1H-imidazol-4-yl)phenyl]-N-isobutyl-acetamide] gave an IC50 of 680 nM. Work on `O=C(Cn1nnc2ccccc21)N(Cc1cc(F)cc(F)c1)c1ccc(C2CCNCC2)cc1` [Compound 90, 2-(benzotriazol-1-yl)-N-[(3,5-difluorophenyl)methyl]-N-[4-(4-piperidyl)phenyl]acetamide] yielded an IC50 of 1700 nM. With `O=C(Cn1nnc2ccccc21)N(Cc1cc(F)cc(F)c1)c1ccc(C2=CCNC2)cc1` [Compound 91, 2-(benzotriazol-1-yl)-N-[(3,5-difluorophenyl)methyl]-N-[4-(2,5-dihydro-1H-pyrrol-3-yl)phenyl]acetamide] the IC50 was 130 nM. `COC(=O)Cc1ccc(N(Cc2cc(F)cc(F)c2)C(=O)Cn2nnc3ccccc32)cc1` [Compound 92, methyl 2-[4-[[2-(benzotriazol-1-yl)acetyl]-[(3,5-difluorophenyl)methyl]amino]phenyl]acetate] gave an IC50 of 1800 nM. In the case of `O=C(O)Cc1ccc(N(Cc2cc(F)cc(F)c2)C(=O)Cn2nnc3ccccc32)cc1` [Compound 93, 2-[4-[[2-(benzotriazol-1-yl)acetyl]-[(3,5-difluorophenyl)methyl]amino]phenyl]acetic acid], the IC50 is reported as 23000 nM.
